Measured values published in ChEMBL document CHEMBL2417468, “4β-[4'-(1-(Aryl)ureido)benzamide]podophyllotoxins as DNA topoisomerase I and IIα inhibitors and apoptosis inducing agents” (2013).
Calls of active or inactive are those of the source. The calls are words filed in the database; no cut-off is given here.

Columns and labels:
Assay type in all cases: functional
[1] = Growth inhibition of human DWD cells after 48 hrs by sulforhodamine B assay
MCF7 = test: Growth inhibition of human MCF7 cells after 48 hrs by sulforhodamine B assay; conditions: MCF7, 48 h
[2] = (§1) Growth inhibition of human Gurav cells after 48 hrs by sulforhodamine B assay
A2780 = test: Growth inhibition of human A2780 cells after 48 hrs by sulforhodamine B assay
KB = test: Growth inhibition of human KB cells after 48 hrs by sulforhodamine B assay
SiHa = test: Growth inhibition of human SiHa cells after 48 hrs by sulforhodamine B assay
HOP-62 = test: Growth inhibition of human HOP62 cells after 48 hrs by sulforhodamine B assay
COLO 205 = test: Growth inhibition of human COLO205 cells after 48 hrs by sulforhodamine B assay
A549 = test: Growth inhibition of human A549 cells after 48 hrs by sulforhodamine B assay
Gurav = test: as §1
ZR-75-1 = test: Growth inhibition of human ZR-75-1 cells after 48 hrs by sulforhodamine B assay; conditions: ZR-75-1, 48 h

SMILES | GI50 [1] [nM] | GI50 (MCF7) [nM] | GI50 [2] [nM] | GI50 (A2780; A2780, 48 h) [nM] | GI50 (KB) | GI50 (SiHa) | GI50 (HOP-62; HOP-62, 48 h) [nM] | GI50 (COLO 205; COLO 205, 48 h) [nM] | GI50 (A549; A549, 48 h) [nM] | GI50 (Gurav) | GI50 (ZR-75-1) [nM] | GI50 (HOP-62) | GI50 (A2780) | GI50 (A549) | GI50 (COLO 205)
COc1cccc2c1C(=O)c1c(O)c3c(c(O)c1C2=O)C[C@@](O)(C(=O)CO)C[C@@H]3O[C@H]1C[C@H](N)[C@H](O)[C@H](C)O1 [DOXORUBICIN] | 100 | 170 | 170 | 160 | 170 nM | 170 nM | 140 | 140 |  |  |  |  |  |  | 
COc1cc([C@@H]2c3cc4c(cc3[C@@H](NC(=O)c3ccc(NC(=O)NCc5ccco5)cc3)[C@H]3COC(=O)[C@H]23)OCO4)cc(OC)c1OC | 2500 | 2900 |  | 2300 | 1930 nM | inactive |  | 2340 | 2620 | inactive | 2600 | inactive |  |  | 
COc1cc([C@@H]2c3cc4c(cc3[C@@H](NC(=O)c3ccc(NC(=O)Nc5ccc(F)c(Cl)c5)cc3)[C@H]3COC(=O)[C@H]23)OCO4)cc(OC)c1OC | 2610 | 120 |  |  | 2010 nM | inactive | 2710 | 2520 | 1500 | inactive | 2900 |  | inactive |  | 
COc1cc([C@@H]2c3cc4c(cc3[C@@H](NC(=O)c3ccc(NC(=O)Nc5cc(C)cc(C)c5)cc3)[C@H]3COC(=O)[C@H]23)OCO4)cc(OC)c1OC | 1600 | 150 | 2700 |  | 2310 nM | inactive |  |  |  |  | 2910 | inactive | inactive | inactive | inactive
COc1cc([C@@H]2c3cc4c(cc3[C@@H](NC(=O)c3ccc(NC(=O)Nc5cccc(Cl)c5)cc3)[C@H]3COC(=O)[C@H]23)OCO4)cc(OC)c1OC | 2300 | 2600 | 2010 | 2800 | inactive | inactive | 2500 | 2600 |  |  | 2900 |  |  | inactive | 
COc1cc([C@@H]2c3cc4c(cc3[C@@H](NC(=O)c3ccc(NC(=O)Nc5ccc(Br)s5)cc3)[C@H]3COC(=O)[C@H]23)OCO4)cc(OC)c1OC | 100 | 120 |  | 2100 | 2500 nM | 2900 nM | 2600 |  | 1400 | inactive | 2400 |  |  |  | inactive
